Test results reported in patent US20090325920A1, “METHODS FOR THE TREATMENT OF A TRAUMATIC CENTRAL NERVOUS SYSTEM INJURY” (priority 2005, published 2009).

Assays:
[1] = Solubility of progesterone in carriers; format: physicochemical
[2] = test system: adults with blunt TBI, Glasgow Coma Scale score 4-12
Text: We also hoped to detect signals of activity.
According to the U.S. Food and Drug Administration, an “adverse event” is any undesirable medical event occurring to a subject in a clinical trial, whether or not related to the study drug. This includes events not seen at baseline, or worsened if present at baseline. “Serious adverse events” are defined as death, immediate risk of death, or suspicion that use or continued use would result in the patient's death, prolongation of existing hospitalization, persistent or significant disability/incapacity, or a congenital anomaly/birth defect.
These included any thromboembolic event (deep vein thrombosis, thrombophlebitis, ischemic myocardial infarction, pulmonary embolism, stroke or transient ischemic attack), elevated liver enzymes, temperature elevation, allergic reactions, and hyperglycemia. […] An independent internal safety monitor made the determination if an adverse event was associated with study treatment. Both the FDA and an independent NIH-appointed data safety monitoring board independently reviewed these determinations.
Selection of participants: Consecutive adult victims of blunt TBI who reached Grady within 11 hours of injury with a post-stabilization or “index” Glasgow Coma Scale score (iGCS) of 4-12 were eligible for enrollment (FIG. 5).
Interventions: Following proxy consent, patients were placed in one of 8 clinical subgroups defined by gender (male versus female), race (black versus all others) and TBI severity (moderate versus severe). […] This asymmetric approach was adopted at the request of our NIH-appointed DSMB to maximize the number of patients receiving study drug while maintaining blinding.
Whenever a patient was enrolled, the next kit in sequence for that subgroup was used to prepare infusions. […] The remaining vials were used to prepare 5 subsequent 12-hour infusions at the same standard rate of 10 mls/hour for a total of 3 days of treatment. Details of drug monitoring are reported elsewhere (Wright et al. (2005) J Clin Pharmacol 45(6):640-648).
Methods of Measurement: To assess drug safety, study personnel rounded daily to document the occurrence of adverse events (AEs) or serious adverse events (SAEs). Hourly vital signs (blood pressure, heart rate, respiratory rate, temperature, and pulse oximetry), intracranial pressure readings, and other parameters (mean arterial pressure, cerebral perfusion pressure, and fluid balance), were abstracted from each patient's chart. Laboratory values were obtained from the hospital's information system, and concomitant medications and interventions were noted.
Whenever an SAE occurred, an independent board-certified neurosurgeon assessed its potential relationship to study treatment using pre-defined scale. SABs were reported within 24 hours to the Institutional Review Board (IRB), our NIH-appointed Data Safety Monitoring Board (DSMB), and the U.S. Food and Drug Administration. All other adverse events were reported to on a weekly basis.
The infusion was stopped if a patient experienced an anaphylactic reaction, a major thromboembolic event, an unexplained elevation of serum aspartate aminotransferase (AST) or alanine aminotransferase (ALT) to a level greater than 5,000 IU, or a serum total bilirubin level greater than 10 mg/dl. […] These rules were based on O'Brien-Fleming boundaries (O'Brien and Fleming (1979) Biometrics 35(3):549-556), constructed using an alpha spending approach (DeMets and Lan (1994) Statistics in Medicine 13(13-14):1341-1352; discussion 1353-1346).
Primary Data Analysis—Treatment and placebo groups were compared with respect to a variety of demographic, historical and prehospital characteristics to ensure that important independent predictors of outcome were equally distributed.

SMILES: CC(=O)[C@H]1CC[C@H]2[C@@H]3CCC4=CC(=O)CC[C@]4(C)[C@H]3CC[C@]12C [progesterone, pregn-4-ene-3,20-dione]
- solubility [1]: soluble only in alcohol
- amount dissolved into solution ([1]; Intralipid 20%): up to 4 gm per 1 liter of intralipid
- 30-day adverse event rate: Acute respiratory distress syndrome ([2]; both, human, in vivo, 30 days): 2.6%
- 30-day adverse event rate: Cardiac Arrhythmia ([2]; both, human, in vivo, 30 days): 5.2%
- 30-day adverse event rate: Cholestatic Jaundice ([2]; both, human, in vivo, 30 days): 6.5%
- 30-day adverse event rate: Fever ([2]; both, human, in vivo, 30 days): 70.1%
- 30-day adverse event rate: Gastrointestinal Bleed ([2]; both, human, in vivo, 30 days): 5.2%
- 30-day adverse event rate: Hyperglycemia-non DM ([2]; both, human, in vivo, 30 days): 27.3%
- 30-day adverse event rate: Hypertension ([2]; both, human, in vivo, 30 days): 11.7%
- 30-day adverse event rate: Hypotension ([2]; both, human, in vivo, 30 days): 9.1%
- 30-day adverse event rate: Hypothermia ([2]; both, human, in vivo, 30 days): 5.2%
- 30-day adverse event rate: Hypoxemia ([2]; both, human, in vivo, 30 days): 11.7%
- 30-day adverse event rate: Increase Liver Enzyme ([2]; both, human, in vivo, 30 days): 6.5%
- 30-day adverse event rate: Phlebitis at Injection Site ([2]; both, human, in vivo, 30 days): 1.3%
- 30-day adverse event rate: Rash or Hives ([2]; both, human, in vivo, 30 days): 2.6%
- 30-day adverse event rate: Seizures ([2]; both, human, in vivo, 30 days): 5.2%
- 30-day adverse event rate: Shock ([2]; both, human, in vivo, 30 days): 2.6%
- 30-day adverse event rate: Suspected Pneumonia ([2]; both, human, in vivo, 30 days): 11.7%
- 30-day adverse event rate: Syndrome of inappropriate ADH ([2]; both, human, in vivo, 30 days): 1.3%
- 30-day adverse event rate: Tachycardia ([2]; both, human, in vivo, 30 days): 24.7%
- 30-day adverse event rate: Thromboembolic Disease ([2]; both, human, in vivo, 30 days): 3.9%
- Mean Duration of Pressures Exceeding Threshold Values: CPP < 60 ([2]; in vivo): 6.9 h
- Mean Duration of Pressures Exceeding Threshold Values: ICP > 25 ([2]; in vivo): 5.0 h
- Mean Duration of Pressures Exceeding Threshold Values: MAP < 70 ([2]; in vivo): 2.5 h
- Mean Duration of Pressures Exceeding Threshold Values: Systolic BP < 90 ([2]; in vivo): 2.7 h
- Mean Frequency of Pressures Exceeding Threshold Values: CPP < 60 ([2]; in vivo): 92.9 Rate/1000 consecutive readings
- Mean Frequency of Pressures Exceeding Threshold Values: ICP > 25 ([2]; in vivo): 70.2 Rate/1000 consecutive readings
- Mean Frequency of Pressures Exceeding Threshold Values: MAP < 70 ([2]; in vivo): 29.5 Rate/1000 consecutive readings
- Mean Frequency of Pressures Exceeding Threshold Values: Systolic BP < 90 ([2]; in vivo): 32.1 Rate/1000 consecutive readings
- Percent of Patients with Clinical Values Exceeding the Threshold: CPP < 60 ([2]; in vivo): 48.7%
- Percent of Patients with Clinical Values Exceeding the Threshold: ICP > 25 ([2]; in vivo): 32.4%
- Percent of Patients with Clinical Values Exceeding the Threshold: MAP < 70 ([2]; in vivo): 29.0%
- Percent of Patients with Clinical Values Exceeding the Threshold: Systolic BP < 90 ([2]; in vivo): 29.0%
- adverse events specifically ascribed to administration ([2]; in vivo): two cases of superficial phlebitis at the IV site
- aggregate and individual rates of adverse and serious adverse events versus placebo ([2]; in vivo): not different between groups
- patients who developed a deep vein thrombosis ([2]; in vivo): Three patients
- serious adverse events attributed to study drug ([2]; in vivo): No serious adverse events were attributed to progesterone
- slope of treatment by time interaction term for mean temperature ([2]; in vivo): −0.0055
- 30-day adverse event rate: Central nervous system infection ([2]; progesterone group, n=77): 1.3%
- 30-day adverse event rate: Death within 30 days ([2]; progesterone group, n=77): 13.0%
- 30-day adverse event rate: Sepsis ([2]; progesterone group, n=77): 2.6%
